Laboratory results: the supplement of paper PMC10307832

Key:
Assay in all cases: relative viability (nuclei count vs DMSO), 5 days (fraction); higher = more cells survive
AZD5582 + Dasatinib = compound: C[C@@H](C(=O)N[C@@H](C1CCCCC1)C(=O)N2CCC[C@H]2C(=O)N[C@@H]3[C@@H](CC4=CC=CC=C34)OCC#CC#CCO[C@@H]5CC6=CC=CC=C6[C@@H]5NC(=O)[C@@H]7CCCN7C(=O)[C@H](C8CCCCC8)NC(=O)[C@H](C)NC)NC [AZD5582] + Cc1nc(Nc2ncc(C(=O)Nc3c(C)cccc3Cl)s2)cc(N2CCN(CCO)CC2)n1 [Dasatinib] (partner 0.075 µM)
Procedure, shortened: (§1)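 Values are medians from duplicate plates. Each reflects relative viability, defined as the nuclei count of treated wells over that of vehicle wells. Lung cancer cell lines in 1536-well plates were pin-tool dosed one day after seeding with one drug alone or with a fixed anchor-drug dose plus five library-drug doses (not always all listed) in √10 steps, then fixed, stained and imaged at 4× after 5 days.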

[1] = compound: Cn1nnc2c(C(N)=O)ncn2c1=O [Temozolomide] + CC(=O)Nc1cccc(-n2c(=O)n(C3CC3)c(=O)c3c(Nc4ccc(I)cc4F)n(C)c(=O)c(C)c32)c1 [Trametinib] (partner 0.02 µM)
Procedure, shortened: as §1

Temozolomide + Foretinib = compound: Cn1nnc2c(C(N)=O)ncn2c1=O [Temozolomide] + COc1cc2c(Oc3ccc(NC(=O)C4(C(=O)Nc5ccc(F)cc5)CC4)cc3F)ccnc2cc1OCCCN1CCOCC1 [Foretinib] (partner 0.25 µM)
Procedure, shortened: as §1

AZD5582 + Bortezomib = compound: C[C@@H](C(=O)N[C@@H](C1CCCCC1)C(=O)N2CCC[C@H]2C(=O)N[C@@H]3[C@@H](CC4=CC=CC=C34)OCC#CC#CCO[C@@H]5CC6=CC=CC=C6[C@@H]5NC(=O)[C@@H]7CCCN7C(=O)[C@H](C8CCCCC8)NC(=O)[C@H](C)NC)NC [AZD5582] + CC(C)C[C@H](NC(=O)[C@H](Cc1ccccc1)NC(=O)c1cnccn1)B(O)O [Bortezomib] (partner 0.002 µM)
Procedure, shortened: as §1

| Cell Line | relative viability (AZD5582 + Dasatinib; first compound 0.001581 µM) | relative viability (AZD5582 + Dasatinib; first compound 0.005 µM) | relative viability (AZD5582 + Dasatinib; first compound 0.01581 µM) | relative viability (AZD5582 + Dasatinib; first compound 0.05 µM) | relative viability ([1]; first compound 0.2 µM) | relative viability ([1]; first compound 0.6325 µM) | relative viability ([1]; first compound 2 µM) | relative viability ([1]; first compound 6.325 µM) | relative viability ([1]; first compound 20 µM) | relative viability (Temozolomide + Foretinib; first compound 0.2 µM) | relative viability (Temozolomide + Foretinib; first compound 0.6325 µM) | relative viability (Temozolomide + Foretinib; first compound 2 µM) | relative viability (Temozolomide + Foretinib; first compound 6.325 µM) | relative viability (Temozolomide + Foretinib; first compound 20 µM) | relative viability (AZD5582 + Bortezomib; first compound 0.001581 µM) | relative viability (AZD5582 + Bortezomib; first compound 0.005 µM) | relative viability (AZD5582 + Bortezomib; first compound 0.01581 µM) | relative viability (AZD5582 + Bortezomib; first compound 0.05 µM) |
| --- | --- | --- | --- | --- | --- | --- | --- | --- | --- | --- | --- | --- | --- | --- | --- | --- | --- | --- |
| SW 900 | 0.482 | 0.424 | 0.393 | 0.653 | 0.728 | 0.783 | 0.966 | 1 | 0.59 | 0.924 | 1.2 | 0.955 | 0.732 | 1.25 |  |  |  |  |
| NCI-H520 | 0.202 | 0.227 | 0.206 | 0.178 | 0.715 | 0.717 | 0.676 | 0.683 | 0.597 | 0.908 | 0.842 | 0.704 | 0.689 | 0.769 | 0.702 | 0.826 | 0.432 | 0.757 |
| ABC-1 | 0.344 | 0.611 |  | 0.632 |  |  |  |  |  | 1.06 | 0.96 | 1.21 | 1.07 | 1.11 | 0.282 | 0.275 | 0.291 | 0.261 |
| NCI-H1734 | 0.468 | 0.548 | 0.434 | 0.664 | 0.722 | 0.694 | 0.661 | 0.678 | 0.692 | 0.874 | 0.929 | 0.959 | 0.754 | 0.859 | 0.959 | 0.963 | 0.966 | 1.14 |
| EKVX | 0.502 | 0.615 |  | 0.627 |  | 0.318 | 0.286 | 0.338 | 0.247 | 0.485 | 0.799 | 0.748 | 0.722 | 0.356 | 1.02 | 1.02 | 0.934 | 0.575 |
| NCI-H1395 | 0.437 | 0.458 | 0.354 | 0.46 | 0.815 | 1.06 | 1.17 | 0.986 | 1.02 | 0.865 | 0.92 | 1.03 | 0.94 | 0.911 |  |  |  |  |
| HCC-44 |  |  |  |  | 1.06 | 1.16 | 1.08 | 1.05 | 0.956 |  |  |  |  |  | 0.711 | 0.722 | 0.918 | 0.553 |
| LK-2 | 0.209 | 0.36 | 0.322 | 0.266 | 0.653 | 0.685 | 0.663 | 0.653 | 0.489 | 1.25 | 1.44 | 1.19 | 0.742 | 0.519 |  |  |  |  |
| NCI-H1648 |  |  |  |  |  | 0.477 | 0.454 | 0.545 | 0.307 |  |  |  |  |  |  |  |  |  |
| NCI-H1623 | 0.514 | 0.582 | 0.559 | 0.433 |  |  |  |  |  |  | 0.854 | 0.827 | 0.822 | 0.519 |  |  |  |  |
| NCI-H2170 | 0.494 | 0.571 | 0.558 | 0.471 |  | 0.984 | 0.902 | 0.876 | 0.348 |  | 1.01 | 1.05 | 0.993 | 0.526 |  |  |  |  |
| SK-MES-1 | 0.246 | 0.445 | 0.367 | 0.279 | 0.656 | 0.578 | 0.663 | 0.539 | 0.58 | 0.972 | 1.05 | 1.09 | 0.892 | 0.521 |  |  |  |  |
| A549 |  |  |  |  |  |  |  |  |  | 1.02 | 0.996 | 0.998 | 1.01 | 0.769 |  |  |  |  |
| Calu-6 |  |  |  |  |  |  |  |  |  | 0.886 | 0.843 | 0.941 | 0.811 | 0.904 | 0.917 | 0.813 | 0.988 | 0.551 |
| NCI-H358 | 0.158 | 0.193 | 0.265 | 0.166 | 0.108 | 0.143 | 0.131 | 0.139 | 0.145 | 0.477 | 0.707 | 0.614 | 0.657 | 0.541 |  |  |  |  |
| NCI-H522 | 0.935 | 0.876 | 0.846 | 1.45 | 0.654 | 0.724 | 0.954 | 0.691 | 0.671 |  |  |  |  |  |  |  |  |  |
| NCI-H1563 | 0.412 | 0.456 | 0.447 | 0.461 |  |  |  |  |  | 0.762 | 0.967 | 0.886 | 0.915 | 0.927 | 0.765 | 0.887 | 0.788 | 1.25 |
| IA-LM |  |  |  |  |  |  |  |  |  | 1.35 | 1.23 | 1.19 | 1.03 | 1.34 | 0.704 | 0.679 | 0.829 | 0.74 |
| NCI-H1944 | 0.244 | 0.228 | 0.227 | 0.238 | 0.367 | 0.402 | 0.435 | 0.426 | 0.362 | 0.756 | 0.922 | 0.847 | 0.875 | 0.795 |  |  |  |  |
| NCI-H2342 | 0.316 | 0.315 | 0.27 | 0.319 | 0.638 | 0.848 | 0.757 | 0.799 | 0.818 | 0.793 | 1 | 1.04 | 1.02 | 0.886 |  |  |  |  |
| NCI-H1793 | 0.32 | 0.429 | 0.292 | 0.261 |  | 0.463 | 0.465 | 0.335 | 0.414 |  | 0.583 | 0.935 | 0.432 | 0.615 |  |  |  |  |
